Source: PubChem BioAssay (NCI)
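Values below derive from 48-hour exposures of cells grown in 96-well plates, with endpoints linearly interpolated between the two concentrations bracketing the appropriate inhibition level. The concentration for 50% growth inhibition is given as GI50. TGI is the concentration that stops growth completely.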

Legend:
Experiment in all cases: inhibition of tumour cell growth, NCI panel, 48 h
[1] = test system: CCRF-CEM leukemia
[2] = test system: DU-145 prostate
[3] = test system: IGROV1 ovarian
[4] = test system: MCF7 breast
[5] = test system: MDA-N
[6] = test system: SF-268 CNS
[7] = test system: SF-539 CNS
[8] = test system: SW-620 colon
[9] = test system: UACC-257 melanoma
[10] = test system: UO-31 renal

| SMILES | TGI [1] [µM] | TGI [2] [µM] | TGI [3] [µM] | TGI [4] [µM] | TGI [5] [µM] | TGI [6] [µM] | TGI [7] [µM] | TGI [8] [µM] | TGI [9] [µM] | TGI [10] [µM] | GI50 [2] [nM] | GI50 [7] [nM] | GI50 [9] [nM] | GI50 [10] [nM] | GI50 [1] [nM] | GI50 [3] [nM] | GI50 [6] [nM] | GI50 [8] [nM] |
| --- | --- | --- | --- | --- | --- | --- | --- | --- | --- | --- | --- | --- | --- | --- | --- | --- | --- | --- |
| CCOC(=O)c1c(-c2ccc(OC)cc2)c(C#N)c(=S)n(C2OC(CO)C(O)C(O)C2O)c1C (centres undefined) | > 100 | > 100 | > 100 | > 100 | > 100 | > 100 | > 100 | > 100 | > 100 | > 100 | – | – | – | – | – | – | – | – |
| C[C@@H](CCO)OC1OC(COC(=O)C(C)(C)C)C(OC(=O)C(C)(C)C)C(OC(=O)C(C)(C)C)C1OC(=O)C(C)(C)C (some centres undefined) | > 100 | > 100 | > 100 | > 100 | – | > 100 | > 100 | > 100 | > 100 | – | – | – | – | – | – | – | – | – |
| O=c1[nH]nc(-c2ccc([N+](=O)[O-])cc2)[nH]1 | > 100 | > 100 | > 100 | > 100 | > 100 | > 100 | > 100 | > 100 | > 100 | > 100 | – | – | – | – | – | – | – | – |
| CC1=CC(O)CC(C)(C)C1/C=C/C(C)=C/C=C/C(C)=C/C=C/C=C(C)/C=C/C=C(C)/C=C/C1=C(C)CC(O)CC1(C)C (centres undefined) | > 100 | > 100 | 66.3 | 77.7 | 37.8 | – | – | 34.8 | 59.1 | > 100 | – | – | – | – | – | – | – | – |
| Nn1nnc2ccccc21 | > 100 | > 100 | > 100 | > 100 | – | > 100 | – | > 100 | > 100 | > 100 | – | – | – | – | – | – | – | – |
| O=C1c2c(Br)sc(Br)c2[C@H]2OC(=S)N[C@@H]12 | – | 26.9 | 23.9 | 23.2 | 16.9 | 12 | 31.2 | 5.84 | 17.1 | 3.34 | – | – | – | – | – | – | – | – |
| COc1ccc(C(=C2C(=O)OC(=O)C2=C(C)C)c2ccc(OC)cc2)cc1 | – | > 100 | > 100 | > 100 | > 100 | > 100 | > 100 | > 100 | > 100 | > 100 | – | – | – | – | – | – | – | – |
| O=C(O)C(CS)N=Cc1nc(-c2ccccc2)oc1O (centres undefined) | > 100 | – | > 100 | – | – | > 100 | > 100 | > 100 | > 100 | > 100 | – | – | – | – | – | – | – | – |
| O=c1n(CCCN2CCOCC2)nc2n1-c1ccc3ccccc3c1SC2 | > 100 | > 100 | > 100 | > 100 | 24.1 | – | > 100 | > 100 | > 100 | 45.7 | – | – | – | – | – | – | – | – |
| CCc1ccc(OCc2ccccc2C(=O)Nc2ccc3nc(C)cc(N)c3c2)cc1 | – | 3.17 | – | – | – | – | 3.04 | – | 3.37 | 2.84 | 1680 | 1590 | 1830 | 1440 | – | – | – | – |
| COc1cc2c3cc1Oc1cc(ccc1O)C[C@@H]1c4c(cc(OC)c(O)c4Oc4ccc(cc4)C[C@@H]3[N+](C)(C)CC2)CC[N+]1(C)C | – | > 100 | > 100 | > 100 | > 100 | > 100 | 28.3 | > 100 | > 100 | > 100 | – | – | – | – | – | – | – | – |
| COc1cccc(Nc2nc3c([nH]2)c(=O)n(C)c(=O)n3C)c1 | > 10 | > 10 | > 10 | > 10 | > 10 | > 10 | – | > 10 | > 10 | – | – | – | – | – | – | – | – | – |
| O/N=C/[C@H]1COC2(CCCCC2)O1 | > 100 | > 100 | > 100 | > 100 | > 100 | > 100 | – | > 100 | > 100 | > 100 | – | – | – | – | – | – | – | – |
| C[C@@](Br)(C(=O)O)[C@H](Br)C(=O)O | > 100 | > 100 | > 100 | > 100 | > 100 | > 100 | – | > 100 | > 100 | > 100 | – | – | – | – | – | – | – | – |
| Cn1c(=O)c2[nH]c(Nc3cccc(Cl)c3)nc2n(C)c1=O | > 10 | > 10 | > 10 | > 10 | > 10 | > 10 | – | > 10 | > 10 | – | – | – | – | – | – | – | – | – |
| CC1=[N+]([O-])C2(CCCC2)N(O)C1(C)C | – | > 100 | > 100 | > 100 | > 100 | > 100 | > 100 | > 100 | > 100 | > 100 | – | – | – | – | – | – | – | – |
| O=c1cccc2n1CC1CNCC2C1 (centres undefined) | > 100 | > 100 | – | > 100 | > 100 | > 100 | > 100 | > 100 | > 100 | > 100 | – | – | – | – | – | – | – | – |
| O=C1c2cc3c(cc2-c2c1c1cc(F)c(F)cc1c(=O)n2C[C@H](O)CO)OCO3 | > 100 | > 100 | > 100 | – | – | > 100 | 0.14 | 1.98 | 0.593 | 0.337 | 40.7 | 28.8 | 143 | 69.8 | 34.9 | 182 | 41.1 | 43.1 |
| CN(C)C(=O)/N=C1\SC(=Nc2ccccc2)C(=Nc2ccccc2)N1c1ccc([N+](=O)[O-])cc1 | > 100 | > 100 | > 100 | > 100 | > 100 | – | – | – | – | > 100 | – | – | – | – | – | – | – | – |
| CCc1nc2c([nH]1)C(=O)c1ccccc1C2=O | > 100 | – | – | – | – | > 100 | > 100 | > 100 | 78 | > 100 | – | – | – | – | – | – | – | – |
| O=c1ccn([C@@H]2C=C(CO)[C@@H](O)[C@H]2O)c(=O)[nH]1 | > 625 | – | > 625 | > 625 | – | > 625 | > 625 | > 625 | – | > 625 | – | – | – | – | – | – | – | – |
| COc1ccc(CCn2ccc(=O)c(O)c2C)cc1OC | – | 43 | – | 61.5 | > 100 | 9.92 | 73.9 | > 100 | 31 | – | – | – | – | – | – | – | – | – |
